# In US20220056043A1, “NITROGEN-CONTAINING FUSED CYCLIC COMPOUND, PREPARATION METHOD THEREFOR AND USE THEREOF” (SICHUAN KELUN-BIOTECH BIOPHARMACEUTICAL CO., LTD., priority 2019, published 2022):
# pEC50: −log10 of the molar value. Read-outs that look alike come from different tables or passages of the source.
# Experiments:
# hTLR7 = target: T1, hTLR7 (Homo sapiens, UniProt Q9NYK1); test: Agonistic effect on hTLR7, HEK-hTLR7-NF-κB-Luciferase reporter cells; assay type: cell-based; settings: 16 hours
# T1 construct: host or cells: HEK-hTLR7-NF-κB-Luciferase cells
# T1 sequence (Q9NYK1 27-1049): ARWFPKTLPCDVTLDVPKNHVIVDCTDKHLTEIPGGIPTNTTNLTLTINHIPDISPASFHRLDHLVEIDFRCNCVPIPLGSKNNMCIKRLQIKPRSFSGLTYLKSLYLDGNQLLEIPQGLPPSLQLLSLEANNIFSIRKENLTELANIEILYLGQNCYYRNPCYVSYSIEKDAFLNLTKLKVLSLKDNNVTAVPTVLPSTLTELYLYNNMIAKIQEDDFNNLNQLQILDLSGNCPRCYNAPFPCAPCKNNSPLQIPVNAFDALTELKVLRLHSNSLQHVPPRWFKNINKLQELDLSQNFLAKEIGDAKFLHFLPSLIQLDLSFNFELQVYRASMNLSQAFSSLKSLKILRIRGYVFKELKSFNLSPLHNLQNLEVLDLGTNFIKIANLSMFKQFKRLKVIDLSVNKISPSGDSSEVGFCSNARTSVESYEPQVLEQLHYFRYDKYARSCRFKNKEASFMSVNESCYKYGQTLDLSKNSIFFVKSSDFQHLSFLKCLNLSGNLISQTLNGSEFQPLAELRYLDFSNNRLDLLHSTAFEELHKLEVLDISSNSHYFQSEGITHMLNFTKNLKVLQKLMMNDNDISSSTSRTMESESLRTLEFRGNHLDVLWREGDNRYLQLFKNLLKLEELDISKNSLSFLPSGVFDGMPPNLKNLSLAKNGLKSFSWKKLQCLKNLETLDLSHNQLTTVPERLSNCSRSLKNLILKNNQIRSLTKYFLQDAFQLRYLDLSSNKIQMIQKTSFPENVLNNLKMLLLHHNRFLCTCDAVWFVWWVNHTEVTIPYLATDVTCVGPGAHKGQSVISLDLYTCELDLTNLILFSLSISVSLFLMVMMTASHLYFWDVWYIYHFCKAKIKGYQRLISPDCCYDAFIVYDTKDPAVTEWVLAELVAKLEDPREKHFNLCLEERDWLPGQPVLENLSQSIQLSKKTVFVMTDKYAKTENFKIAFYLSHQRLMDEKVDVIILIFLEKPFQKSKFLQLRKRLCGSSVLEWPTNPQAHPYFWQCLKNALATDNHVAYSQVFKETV
# From the text: Experimental Example 3: Agonistic Effect of the Compound of the Invention on hTLR7
# In this test, the luciferase in HEK-hTLR7-NF-κB-reporter cells was detected to test the activating effect of the compound of the invention on TLR7 signaling pathway, so as to evaluate the specificity of the agonistic effect of the compound on NLRP3 pathway.
# Reagents: DMEM (High glucose); FBS (fetal bovine serum) (Gibco); Bright-Glo™ Luciferase detection kit (Promega)
# Cells: HEK-hTLR7-NF-κB-Luciferase gene cells (human TLR7 NF-κB-luciferase reporter gene cells) (Nanjing Cobioer)
# 1) The HEK-hTLR7-NF-κB-Luciferase cells in a logarithmic growth phase were trypsinized and resuspended in the medium to a concentration of 2×10^6 cells/mL. 50 μL/well of the cell resuspension was added to a 96-well plate such that the number of cells in each well was […]. An appropriate amount of 10 mM DMSO solution of the compound to be tested was taken and diluted to a concentration of 2× test concentration with the medium. 50 μL/well was added to the cells in the 96-well plate, and the 96-well plate was incubated in an incubator at 37° C. and 5% CO2 for 16 hours. The medium was DMEM (High glucose) containing 10% FBS.
# 2) After the cell incubation, 100 μL/well of Bright-Glo™ Luciferase detection reagent was added, and the mixture was incubated at room temperature for 5 minutes. Relative luciferase activity unit (RLU) was read using a microplate reader.
# 3) The EC50 of effect of the tested compound to stimulate hTLR7 was fitted by the GraphPad software log(agonist) vs. response—Variable slope four-parameter method.
# THP1-defNLRP3 cells = test: Agonistic effect on the expression of IL-1β in NLRP3 deficient THP1 cells (THP1-defNLRP3) after PMA-induced differentiation (HTRF); assay type: cell-based, human; settings: IL-1β level, PMA-differentiated NLRP3 deficient THP1 cells, 6 hours, highest test concentration 30 μM, read-out: hNLRP3 EC50 (μM) (THP-1defNLRP3)
# Method in brief: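 PMA-differentiated (1 μM, 24 h) NLRP3-deficient THP1 macrophages, 1×10^5 cells/well in RPMI 1640 with 2% heat-inactivated FBS, treated with compound for 6 h at 37 °C. Supernatant IL-1β measured by HTRF. EC50 from four-parameter variable-slope fit.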
SMILES,pEC50 (hTLR7),"EC50 (THP1-defNLRP3 cells; Homo sapiens, THP-1) [µM]",EC50 (THP1-defNLRP3 cells) [µM]
"CC(C)(O)CNc1cc(N)nc2cc(-c3ccn[nH]3)sc12 [Compound 28, (1-(5-amino-2-(1H-pyrazol-5-yl)thieno[3,2-b]pyridin-7-yl)amino)-2-methyl-2-propanol]",< 4.00,> 30,
C[C@@H](O)CNc1cc(N)nc2cc(-c3ccn[nH]3)sc12 [Compound 29],< 4.00,> 30,
"Nc1cc(N[C@@H]2CC[C@@H](O)C2)c2sc(-c3ccn[nH]3)cc2n1 [Compound 30, (1R,3R)-3-((5-amino-2-(1H-pyrazol-5-yl)thieno[3,2-b]pyridin-7-yl)amino)cyclopentanol]",< 4.00,,> 30
"Nc1cc(NC(CCO)c2ccccc2)c2sc(-c3ccn[nH]3)cc2n1 (stereo not drawn) [Compound 123, 3-((5-amino-2-(1H-pyrazol-5-yl)thieno[3,2-b]pyridin-7-yl)amino)-3-phenyl-1-propanol]",< 4.00,> 30,
"C[C@@H]1CN(CCNc2cc(N)nc3cc(-c4ccn[nH]4)sc23)C[C@@H](C)O1 [Compound 124, N^7-(2-((2R,6R)-2,6-dimethylmorpholino)ethyl)-2-(1H-pyrazol-5-yl)thieno[3,2-b]pyridine-5,7-diamine]",< 4.00,> 30,
"C[C@@H](CCO)Nc1cc(N)nc2cc(-c3ccn[nH]3)sc12 [Compound 125, (S)-3-((5-amino-2-(1H-pyrazol-5-yl)thieno[3,2-b]pyridin-7-yl)amino)butanol]",< 4.00,> 30,
"Nc1cc(NCC2CCC2)c2sc(-c3ccn[nH]3)cc2n1 [Compound 126, N^7-(cyclobutylmethyl)-2-(1H-pyrazol-5-yl)thieno[3,2-b]pyridine-5,7-diamine]",< 4.00,> 30,
"CN(CCCO)c1cc(N)nc2cc(-c3ccn[nH]3)sc12 [Compound 127, 3-((5-amino-2-(1H-pyrazol-5-yl)thieno[3,2-b]pyridin-7-yl)(methyl)amino)-1-propanol]",< 4.00,> 30,
"C[C@H]1CC[C@H](Nc2cc(N)nc3cc(-c4ccn[nH]4)sc23)CC1 [Compound 128, N^7-((1R,4R)-4-methylcyclohexyl)-2-(1H-pyrazol-5-yl)thieno[3,2-b]pyridine-5,7-diamine]",< 4.00,> 30,
"C[C@]1(O)C[C@@H](Nc2cc(N)nc3cc(-c4ccn[nH]4)sc23)C1 [Compound 129, (1s,3s)-3-((5-amino-2-(1H-pyrazol-5-yl)thieno[3,2-b]pyridin-7-yl)amino)-1-methylcyclobutanol]",< 4.00,> 30,
"C[C@H](Nc1cc(N)nc2cc(-c3ccn[nH]3)sc12)c1cccc(C(F)(F)F)c1 [Compound 131, (S)-2-(1H-pyrazol-5-yl)-N^7-(1-(3-(trifluoromethyl)phenyl)ethyl)thieno[3,2-b]pyridine-5,7-diamine]",< 4.00,> 30,
"CC[C@@H](CO)Nc1cc(N)nc2cc(-c3ccn[nH]3)sc12 [Compound 132, (S)-2-((5-amino-2-(1H-pyrazol-5-yl)thieno[3,2-b]pyridin-7-yl)amino)-1-butanol]",< 4.00,> 30,
"COC[C@@H](C)Nc1cc(N)nc2cc(-c3ccn[nH]3)sc12 [Compound 133, (R)—N^7-(1-methoxyprop-2-yl)-2-(1H-pyrazol-5-yl)thieno[3,2-b]pyridine-5,7-diamine]",< 4.00,> 30,
"Cc1cccnc1CNc1cc(N)nc2cc(-c3ccn[nH]3)sc12 [Compound 134, N^7-((3-methylpyridin-2-yl)methyl)-2-(1H-pyrazol-5-yl)thieno[3,2-b]pyridine-5,7-diamine]",< 4.00,> 30,
"Nc1cc(NCCN2CCCC2=O)c2sc(-c3ccn[nH]3)cc2n1 [Compound 135, 1-(2-((5-amino-2-(1H-pyrazol-5-yl)thieno[3,2-b]pyridin-7-yl)amino)ethyl)pyrrolidin-2-one]",< 4.00,> 30,
Nc1cc(NCC(CO)CO)c2sc(-c3ccn[nH]3)cc2n1 [Compound 136],< 4.00,> 30,
"CNC(=O)CNc1cc(N)nc2cc(-c3ccn[nH]3)sc12 [Compound 137, 2-((5-amino-2-(1H-pyrazol-5-yl)thieno[3,2-b]pyridin-7-yl)amino)-N-methylacetamide]",< 4.00,> 30,
"Nc1cc(NCC(=O)NC2CC2)c2sc(-c3ccn[nH]3)cc2n1 [Compound 138, 2-((5-amino-2-(1H-pyrazol-5-yl)thieno[3,2-b]pyridin-7-yl)amino)-N-cyclopropylacetamide]",< 4.00,> 30,
"CN(CCO)c1cc(N)nc2cc(-c3ccn[nH]3)sc12 [Compound 139, 2-((5-amino-2-(1H-pyrazol-5-yl)thieno[3,2-b]pyridin-7-yl)(methyl)amino)ethanol]",< 4.00,> 30,
"CCN(CCNc1cc(N)nc2cc(-c3ccn[nH]3)sc12)C(=O)Cc1cccc(C)c1 [Compound 140, N-(2-((5-amino-2-(1H-pyrazol-5-yl)thieno[3,2-b]pyridin-7-yl)amino)ethyl)-N-ethyl-2-(m-tolyl)acetamide]",< 4.00,> 30,
"CC(C)CNc1cc(N)nc2cc(-c3ccn[nH]3)sc12 [Compound 141, N^7-isobutyl-2-(1H-pyrazol-5-yl)thieno[3,2-b]pyridin-5,7-diamine]",< 4.00,> 30,
"Nc1cc(N[C@H]2[C@@H]3CNC[C@@H]32)c2sc(-c3ccn[nH]3)cc2n1 [Compound 142, N^7-((1R,5S,6S)-3-azabicyclo[3.1.0]hex-6-yl)-2-(1H-pyrazol-5-yl)thieno[3,2-b]pyridin-5,7-diamine]",< 4.00,> 30,
"Nc1cc(NC2CCC(F)(F)CC2)c2sc(-c3ccn[nH]3)cc2n1 [Compound 143, N^7-(4,4-difluorocyclohexyl)-2-(1H-pyrazol-5-yl)thieno[3,2-b]pyridin-5,7-diamine]",< 4.00,> 30,
"CC(C)C[C@H](CO)Nc1cc(N)nc2cc(-c3ccn[nH]3)sc12 [Compound 144, (R)-2-((5-amino-2-(1H-pyrazol-5-yl)thieno[3,2-b]pyridin-7-yl)amino)-4-methyl-1-pentanol]",< 4.00,> 30,
"CCC(=O)N(CC)CCNc1cc(N)nc2cc(-c3ccn[nH]3)sc12 [Compound 145, N-(2-((5-amino-2-(1H-pyrazol-5-yl)thieno[3,2-b]pyridin-7-yl)amino)ethyl)-N-ethylpropionamide]",< 4.00,> 30,
"CCN(CCNc1cc(N)nc2cc(-c3ccn[nH]3)sc12)C(=O)C1CC1 [Compound 146, N-(2-((5-amino-2-(1H-pyrazol-5-yl)thieno[3,2-b]pyridin-7-yl)amino)ethyl)-N-ethylcyclopropyl formamide]",< 4.00,> 30,
"Nc1cc(N[C@H]2CC[C@H](O)CC2)c2sc(-c3ccn[nH]3)cc2n1 [Compound 147, (1R,4R)-4-((5-amino-2-(1H-pyrazol-5-yl)thieno[3,2-b]pyridin-7-yl)amino)cyclohexanol]",< 4.00,> 30,
